Entries after “also recorded” stand apart in the source; their conditions may differ. Non-standard residues stand in square brackets, D forms with d. Primed or numbered codes have the meaning given here. No end group written: not given here. PEG5′ = linker of 5 PEG units between residues
Key:
SIRPα = molecular target: T1, SIRPα (Homo sapiens, UniProt P78324); assay: CD47-Fc Inhibition Assay on THP-1 macrophages; assay type: binding; conditions: 1 μM or 50 μM peptide, 2 μg/mL CD47-Fc, anti-Fc fluorescence
T1 construct: THP-1 monocytes were PMA differentiated in RPMI for 48 h; endogenous in cells; host or cells: PMA-differentiated THP-1 macrophages
Experimental: CD47-Fc Inhibition Assay. THP-1 monocytes were PMA differentiated in RPMI for 48 h. The macrophages were washed with RPMI media and then incubated with 1 μM or 50 μM of nano- Self peptides for 1 h at 37° C., 5% CO2, and 95% humidity. After washing, the macrophages were incubated with Human Trustain FcX Fc receptor blocking solution (Biolegend) for 10 min at RT and then incubated with 2 μg/mL CD47-Fc fusion protein (ACRO Biosystems) for 1 h at 37° C., 5% CO2, and 95% humidity. As a negative control, B6H12 was pre-mixed with CD47-Fc at 4° C. on a rotator for 1 h. The macrophages were then washed and incubated with 0.5 μg/mL goat anti-human IgG Fc DyLight 488 (Thermo Fischer) for 1 h at 37° C., 5% CO2, and 95% humidity. Finally, the macrophages were washed, fixed, Hoechst 33342 stained, and imaged as described above.
To determine whether the nS peptides bind to SIRPα, nS-FF and nS-F4 were used as soluble competitive inhibitors of saturable CD47-Fc fusion protein binding to macrophages (FIG. 20). Addition of multivalent nS peptides was followed by Fc-receptor blockade to minimize Fc-driven binding of construct. Afterwards, CD47-Fc was added and then finally anti-Fc fluorescence imaging was performed (FIG. 20, left).

THP-1 macrophages [1] = assay: Phosphotyrosine (pTyr) staining of THP-1 macrophages; assay type: cell-based, human; conditions: 20 nM peptide
Experimental: Phosphotyrosine (pTyr) staining. THP-1 monocytes were PMA differentiated for 48 hours. Macrophages were washed with RPMI three times then incubated with 50 μM and 20 nM of either nS-F or nS-FF for 1 hour at 37° C., 5% CO2 and 95% humidity. The same conditions were replicated with the addition of 5 μg/mL anti-CD47. Excess peptide was washed with PBS then macrophages were fixed. […] After washing with PBS, the macrophages were incubated with 1:100 mouse anti-pTyr (Santa Cruz Biotechnology) for 1 hour at room temperature with shaking. Macrophages were washed with PBS then stained with AlexaFluor 488 donkey anti-mouse (1:1000; Invitrogen) and 1 μg/mL Hoechst 33342 for 1 hour with shaking then washed again. Fluorescence imaging and quantification was performed as described elsewhere herein.

THP-1 macrophages [2] = assay: Peptide inhibition assay (competition with FAM-labeled nS-F on THP-1 macrophages); assay type: binding, human; conditions: pre-treatment with unlabeled peptide
Experimental: Peptide inhibition assay. THP-1 monocytes were PMA differentiated in RPMI for 48 hours. […] To measure background internalization of the FAM-labeled peptides, nS-X-FAM was used. To determine the efficacy of the bivalent peptides to inhibit SIRPα binding, nS-X was used. Excess peptides were washed off with PBS and cells were fixed with 4% formaldehyde for 15 minutes at RT, washed with PBS, stained with 1 μg/mL Hoechst 33342, and then washed with PBS again. Fluorescence imaging was performed as described elsewhere herein and quantification was done using ImageJ.

soluble human SIRPα = molecular target: T2, soluble human SIRPα (Homo sapiens, UniProt P78324); assay: Binding of biotinylated peptides on streptavidin beads to soluble SIRPα
T2 construct: Soluble human SIRPα fused with glutathione s-transferase (SIRPα-GST); GST (glutathione S-transferase); made in house
Excerpt: SIRPα Expression and Purification. Soluble human SIRPα fused with glutathione s-transferase (SIRPα-GST) was expressed and purified as previously published (Tsai, et al., 2008, J. Cell Biol. 180:989-1003).
Peptide biotinylation: NHS-biotin (Thermo Fischer) was mixed with nS-wt and nS-V, respectively, following the manufacturer's protocol. The biotinylated peptides were dialyzed against PBS.
Streptavidin-beads binding: Streptavidin-coated polystyrene beads of 2.1 μm radius (Spherotech) were washed and blocked 3x in PBS plus 0.4% BSA. nS-wt-biotin or nS-V-biotin were incubated with the beads for 1 hour at room temperature with shaking. Beads were washed with PBS, then incubated with recombinant SIRPα for 1 hour in ice. Streptavidin beads were labeled with rabbit anti-streptavidin-FITC (Invitrogen) and SIRPα was stained with mouse anti-SIRPα-allophycocyanin (anti-SIRPα-APC; Invitrogen).

[3] = system: COS-1 (SIRPα negative) cells; assay: Confocal live staining with FAM-labeled peptides, COS-1 cells; assay type: binding, monkey; conditions: FAM-labeled peptide
Experimental: SIRPα staining and confocal imaging. THP-1 monocytes were PMA-differentiated in RPMI 1640 for 24 hours. J774A.1, A549, and COS-1 cells were plated for 24 hours in media, respectively. Cells were washed with respective media prior to addition of fluorescent peptides. The peptides were left to incubate for 1 hour at 37 ° C., 5% CO2 and 95% humidity. For fixed cell staining, cells were incubated with 4% formaldehyde (Pierce) for 15 minutes prior to the addition of fluorescent peptides whereas for live cell staining, fixation was done after incubation with the FAM-labeled peptides. Nuclei were stained with 1 μg/mL Hoechst 33342 (Invitrogen). Cells were the washed PBS three times before analysis. Fluorescence imaging of fixed cells was performed using an Olympus IX71 with a digital EMCCD camera (Cascade 512B) and a 40×/0.6 NA objective. […] Quantification was done with ImageJ (NIH).
In order to visualize the uneven binding of the peptides to the surface of the macrophages, a live staining experiment of THP-1, J774A.1, and A549 cells, which all express SIRPα at different levels, was performed with FAM-labeled nS-wt and nS-X and analyzed by confocal microscopy (FIG. 11). […] Fluorescence of nS-X was consistently lower on THP-1 and J774A.1 macrophages relative to nS-wt. […]

Substance | level of inhibition of CD47-Fc binding (SIRPα) | effect on pTyr signal (THP-1 macrophages [1]) | inhibition of monovalent nS-F-FAM binding to macrophages (THP-1 macrophages [2]) | SIRPα binding to peptide-coated beads (soluble human SIRPα) | binding to COS-1 cells [3]
(VTELFREG-PEG5)2-K (VTELFREG[PEG5′]K[PEG5′]GERFLETV; not fully specified; also: bivalent lysine core) [nS-FF, bivalent nS-F linked through PEG5 linkers to a C-terminal Lys] | as inhibitory as anti-CD47 | suppressed pTyr at nanomolar concentrations; also recorded: suppressed passivating pTyr intensity; also recorded: suppressed pTyr signal; also recorded: efficiently suppresses phosphorylation | further decreased | – | –
VTELTREG [nS-wt, 8-amino acid wild type nano-Self peptide from the CD47 loop, C-terminal amide] | – | – | – | fluorescence is only observed in the presence of biotinylated peptide | primarily non-specific

From US20240158448A1, “MULTIVALENT NANO-'SELF' PEPTIDES AND USES THEREOF” (THE TRUSTEES OF THE UNIVERSITY OF PENNSYLVANIA, priority 2021, published 2024)
